Experimental data: patent US20090169538A1, “Methods of Treating or Preventing Tissue Damage Caused by Increased Blood Flow” (REGENERX BIOPHARMACEUTICALS, INC., priority 2006, published 2009)

Legend:
ILK = ILK localization, expression and activation (immunocytochemistry, Western); assay type: cell-based
Experimental: Because recruitment of ILK to the focal adhesion complex is important for its activation, the effects of thymosin β4 on ILK localization and expression were assayed. […] Because thymosin β4 sequesters the pool of G-actin monomers, the effects on ILK activation were dependent on thymosin β4's role in regulating the balance between polymerized F-actin and monomeric G-actin were tested. F-actin polymerization was inhibited using C3 transferase and also F-actin formation was promoted with an activated Rho, but neither intervention affected the ILK activation observed after treatment of COS1 or C2C 12 cells with thymosin β4.

ILK and Akt = assay: western blot of heart lysates after coronary ligation; assay type: in vivo, mice
Experimental: Because thymosin β4 upregulates ILK activity and Akt phosphorylation in cultured cells, the effects on these kinases in vivo were tested. […] Total Akt protein was not increased.
Myocardial infarction was produced in fifty-eight male C57BL/6J mice at 16 weeks of age (25-30 g) by ligation of the left anterior descending coronary artery as previously described. Twenty-nine of the ligated mice received thymosin β4 treatment immediately following ligation and the remaining twenty-nine received PBS injections. Treatment was given intracardiac with thymosin β4 (200 ng in 10 ul collagen) or with 10 ul of collagen; intraperitoneally with thymosin β4 (150 μg in 300 μl PBS) or with […]; or by both intracardiac and intraperitoneal injections. Intraperitoneal injections were given every three days until mice were sacrificed. Doses were based on previous studies of thymosin β4 biodistribution. Hearts were removed, weighed and fixed for histologic sectioning. Additional mice were operated on in a similar fashion for studies 0.5, 1, 3, 6 and 11 days after ligation.

[1] = test system: cardiac endothelial cells; assay: collagen gel assay, transformation of cardiac endothelial cells to mesenchymal cells; assay type: cell-based; details: Tβ4 at physiological concentrations
Experimental: Synthetic Tβ4 and an antibody to Tβ4 was provided by RegeneRx Biopharmaceuticals, Inc. (3 Bethesda Metro Center, Suite 700, Bethesda, Md. 20814) and were tested in a collagen gel assay to determine their effects on the Transformation of cardiac endothelial cells to mesenchymal cells. It is well established that development of heart valves and other cardiac tissue are formed by epithelial-mesenchymal transformation and that defects in this process can cause serious cardiovascular malformation and injury during development and throughout life. […] Transformation of atrioventricular endocardium into invasive mesenchyme is an aspect of the formation and maintenance of normal cardiac tissue and in the formation of heart valves.
Synthetic Tβ4 and an antibody to Tβ4 was provided by RegeneRx Biopharmaceuticals, Inc. (3 Bethesda Metro Center, Suite 700, Bethesda, Md. 20814) and were tested in a collagen gel assay to determine their effects on the Transformation of cardiac endothelial cells to mesenchymal cells. It is well established that development of heart valves and other cardiac tissue are formed by epithelial-mesenchymal transformation and that defects in this process can cause serious cardiovascular malformation and injury during development and throughout life. […]

[2] = target: T1, integrin linked kinase (ILK) (Homo sapiens, UniProt Q13418); assay: coimmunoprecipitation with ILK; assay type: binding
T1 construct: expressed in transfected cells; host or cells: Cos and 10T1/2 cells
T1 sequence (Q13418 1-452): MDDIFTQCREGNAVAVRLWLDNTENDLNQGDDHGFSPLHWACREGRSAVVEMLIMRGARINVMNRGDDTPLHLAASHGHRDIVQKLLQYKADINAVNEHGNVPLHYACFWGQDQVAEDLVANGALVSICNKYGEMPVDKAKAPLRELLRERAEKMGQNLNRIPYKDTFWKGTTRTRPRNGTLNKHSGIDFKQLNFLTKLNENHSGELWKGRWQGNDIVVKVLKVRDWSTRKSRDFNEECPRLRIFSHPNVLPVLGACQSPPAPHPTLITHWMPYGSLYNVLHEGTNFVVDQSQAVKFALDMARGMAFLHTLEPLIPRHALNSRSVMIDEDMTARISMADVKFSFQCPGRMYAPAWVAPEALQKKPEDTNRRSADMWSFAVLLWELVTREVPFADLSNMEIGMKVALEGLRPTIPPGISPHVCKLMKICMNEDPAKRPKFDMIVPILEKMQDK
Source text: To investigate the potential mechanisms through which thymosin β4 might be influencing cell migration and survival events, thymosin β4 interacting proteins were searched. The amino-terminus of […] was fused with affi-gel beads resulting in exposure of the carboxy-terminus that allowed identification of previously unknown interacting proteins but prohibited association with actin. An E9.5-12.5 mouse heart T7 phage cDNA library was synthesized and screened by phage display and thymosin β4-interacting clones were enriched and confirmed by ELISA. PINCH, a LIM domain protein, was most consistently isolated in this screen and interacted with thymosin β4 in the absence of actin (ELISA). PINCH and integrin linked kinase (ILK) interact directly with one another and indirectly with the actin cytoskeleton as part of a larger complex involved in cell-extracellular matrix interactions known as the focal adhesion complex. PINCH and ILK are required for cell motility and for cell survival, in part by promoting phosphorylation of the serine-threonine kinase Akt/protein kinase B, a central kinase in survival and growth signaling pathways. […] The PINCH interaction with thymosin β4 mapped to the fourth and fifth LIM domains of PINCH while the amino terminal ankryin domain of ILK was sufficient for thymosin β4 interaction. […]

How did the “ILK protein levels by Western analysis” value (ILK; C2C12 cells) turn out when thymosin β4 was run?
The value was “modest increase”.

And the “total Akt protein” value (ILK; C2C12 cells)?
The value was “unchanged”.

And the “phosphorylation of Akt (serine 473)” value (ILK; C2C12 cells, phospho-specific antibody)?
The value was “increased phosphorylation”.

And the “ILK detection by immunocytochemistry around the cell edges” value (ILK; embryonic heart explants or C2C12 myoblasts, synthetic thymosin β4 10 ng/100 ul or expressing plasmid)?
Its value is “markedly enhanced”.

What about the “total Akt protein” value (ILK and Akt) of the same substance?
The value was “not increased”.

What about the “level of ILK protein in heart lysates” value (ILK and Akt; compared with PBS treated mice) of the same substance?
The value was “increased”.

And the “amount of phosphorylated Akt-5473” value (ILK and Akt; phospho-specific antibodies)?
Its value is “elevation”.

And the “transformation of endocardial cells to mesenchymal cells” value [1]?
Its value is “markedly enhances”.

What about the “strength of interaction of ILK with thymosin β4” value ([2]; common complex immunoprecipitation) of the same substance?
The value was “weaker than with PINCH”.

What about the “co-precipitation with ILK” value ([2]; plasmids transfected in cultured cells) of the same substance?
The value was “co-precipitated”.
